Legend:
[1] = Activation of monkey NPR1 expressed in CHO-K1 cells assessed as increase in cGMP production measured after 30 mins by HTRF assay; type: cell-based; conditions: Macaca mulatta, CHO-K1, 0.5 h
[2] = target: T1, Atrial natriuretic peptide receptor 1 (Homo sapiens, UniProt P16066); test: Activation of human NPR1 expressed in CHO-K1 cells assessed as increase in cGMP production measured after 30 mins by HTRF assay; type: cell-based
T1 sequence (P16066 whole entry): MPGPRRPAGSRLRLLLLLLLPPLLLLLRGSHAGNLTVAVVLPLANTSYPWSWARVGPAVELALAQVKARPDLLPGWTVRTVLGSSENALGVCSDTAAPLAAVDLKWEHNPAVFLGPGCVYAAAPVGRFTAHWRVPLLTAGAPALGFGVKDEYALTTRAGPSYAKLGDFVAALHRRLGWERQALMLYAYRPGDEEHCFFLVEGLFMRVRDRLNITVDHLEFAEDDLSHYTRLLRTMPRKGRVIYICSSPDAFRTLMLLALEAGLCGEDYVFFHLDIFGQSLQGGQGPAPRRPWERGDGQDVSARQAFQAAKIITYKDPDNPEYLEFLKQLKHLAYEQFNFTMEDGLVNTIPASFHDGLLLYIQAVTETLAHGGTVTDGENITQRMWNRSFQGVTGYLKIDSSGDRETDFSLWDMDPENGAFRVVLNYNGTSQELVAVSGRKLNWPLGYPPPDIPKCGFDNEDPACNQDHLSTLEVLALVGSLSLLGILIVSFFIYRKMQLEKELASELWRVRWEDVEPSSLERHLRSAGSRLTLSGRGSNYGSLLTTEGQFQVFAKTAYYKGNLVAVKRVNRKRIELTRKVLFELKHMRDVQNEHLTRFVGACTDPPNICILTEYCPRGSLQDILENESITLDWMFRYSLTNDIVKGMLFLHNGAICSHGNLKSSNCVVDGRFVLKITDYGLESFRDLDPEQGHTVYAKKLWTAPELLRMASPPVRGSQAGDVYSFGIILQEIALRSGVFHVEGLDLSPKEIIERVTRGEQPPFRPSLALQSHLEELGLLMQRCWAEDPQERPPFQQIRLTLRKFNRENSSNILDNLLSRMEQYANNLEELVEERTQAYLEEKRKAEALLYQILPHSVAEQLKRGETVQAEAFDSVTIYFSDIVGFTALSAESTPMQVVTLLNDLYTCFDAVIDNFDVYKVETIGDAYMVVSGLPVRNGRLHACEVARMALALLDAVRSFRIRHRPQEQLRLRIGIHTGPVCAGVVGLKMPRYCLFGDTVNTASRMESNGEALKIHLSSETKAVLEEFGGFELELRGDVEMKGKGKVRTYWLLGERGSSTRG

SMILES	AC50 [2] [nM]	AC50 [1] [nM]
CC[C@@H](N(C)c1nc2c(c(N[C@@H](CN3CCCCCC3)c3cnn(C)c3)n1)C[C@H](c1cccc(F)c1)CC2)C12CC(C(=O)O)(C1)C2		10
CC[C@H]([C@H]1CC[C@H](C(=O)O)CC1)N(C)c1nc2c(c(N[C@@H](CN3C4CCCC3CC4)c3ccn(C)n3)n1)C[C@H](c1cccc(F)c1)CC2		272
CC[C@@H](Nc1nc2c(c(N[C@@H](CN3CCC[C@H](C)C3)c3cnn(C)c3)n1)C[C@](C)(c1cccc(F)c1)CC2)C1CCC(C(=O)O)CC1 (some centres undefined)	42	44
CC[C@@H](Nc1nc2c(c(N[C@@H](CN3C4CCCC3CC4)c3ccccc3)n1)C[C@H](c1ccccc1)CC2)[C@H]1CC[C@H](C(=O)O)CC1		138

Continued, in another order:

AC50 [2] [nM]	SMILES	AC50 [1] [nM]
72	CC[C@@H](Nc1nc2c(c(N[C@@H](CN3CCC[C@H](C)C3)c3cnn(C)c3)n1)C[C@](C)(c1ccc(F)cc1)CC2)C1CCC(C(=O)O)CC1 (some centres undefined)	68
66	CC[C@@H](Nc1nc2c(c(N[C@@H](CN3CCCCCC3)c3cnn(C)c3)n1)C[C@H](c1cccc(F)c1)CC2)C1CCC(C(=O)O)CC1 (some centres undefined)	45
